Data reported in patent US20220119354A1, “DIAMINO-SUBSTITUTED PYRIDINES AND PYRIMIDINES AS HERBICIDES” (FMC Corporation, priority 2019, published 2022).

Tests used:
Type in all cases: in vivo
[1] = test system: ragweed (common ragweed, Ambrosia elatior); test: Test A preemergence, ragweed; conditions: 0 to 100 scale; for Ragweed plant response rating: 0 is no effect, 100 is complete control
Method in brief: (§1)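 Seeds sown in loam–sand blend received a directed soil spray of test chemical in non-phytotoxic solvent with surfactant (preemergence); postemergence plants at 2–10 cm, one- to two-leaf stage, were sprayed with the same formulation. Injury rated visually versus untreated controls after ~10 d in greenhouse, 0–100 scale.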

[2] = test system: blackgrass (Alopecurus myosuroides); test: Test A postemergence, blackgrass; conditions: 0 to 100 scale
Method in brief: as §1

[3] = test system: pigweed (Amaranthus retroflexus); test: Test A postemergence, pigweed; conditions: 0 to 100 scale
Method in brief: as §1

[4] = test system: foxtail, giant (Setaria faberii); test: Test A preemergence, giant foxtail; conditions: 0 to 100 scale; for Foxtail, Giant plant response rating: 0 is no effect, 100 is complete control
Method in brief: as §1

[5] = test system: sedge, umbrella (small-flower umbrella sedge, Cyperus difformis); test: Test B flooded paddy test, umbrella sedge; conditions: Flood, 250 g ai/ha, applied to paddy water, 2-leaf stage, visual evaluation after 13 to 15 d
Method in brief: (§2)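 Each response is a visual 0–100 rating made against untreated controls, where 0 is no effect and 100 is complete control; a dash marks no result. Compound was dosed into 3 cm paddy water over 2-leaf plants, assessed after 13 to 15 d.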

[6] = test system: ryegrass, Italian (Lolium multiflorum); test: Test A preemergence, Italian ryegrass; conditions: 0 to 100 scale; for Ryegrass, Italian plant response rating: 0 is no effect, 100 is complete control
Method in brief: as §1

[7] = test system: ryegrass, Italian (Lolium multiflorum); test: Test A postemergence, Italian ryegrass; conditions: 0 to 100 scale
Method in brief: as §1

[8] = test system: pigweed (Amaranthus retroflexus); test: Test A preemergence, pigweed; conditions: 0 to 100 scale; for Pigweed plant response rating: 0 is no effect, 100 is complete control
Method in brief: as §1

kochia (Kochia scoparia) [9] = test: Test A preemergence, kochia; conditions: 0 to 100 scale; for Kochia plant response rating: 0 is no effect, 100 is complete control
Method in brief: as §1

[10] = test system: ragweed (common ragweed, Ambrosia elatior); test: Test A postemergence, ragweed; conditions: 0 to 100 scale
Method in brief: as §1

[11] = test system: wheat (Triticum aestivum); test: Test A postemergence, wheat; conditions: 0 to 100 scale
Method in brief: as §1

[12] = test system: foxtail, giant (Setaria faberii); test: Test A postemergence, giant foxtail; conditions: 0 to 100 scale
Method in brief: as §1

rice (Oryza sativa) = test: Test B flooded paddy test, rice; conditions: Flood, 250 g ai/ha, applied to paddy water, 2-leaf stage, visual evaluation after 13 to 15 d
Method in brief: as §2

[13] = test system: galium (catchweed bedstraw, Galium aparine); test: Test A postemergence, galium; conditions: 0 to 100 scale
Method in brief: as §1

[14] = test system: barnyardgrass (Echinochloa crus-galli); test: Test A postemergence, barnyardgrass; conditions: 0 to 100 scale
Method in brief: as §1

[15] = test system: barnyardgrass (Echinochloa crus-galli); test: Test A preemergence, barnyardgrass; conditions: 0 to 100 scale; for Barnyardgrass plant response rating: 0 is no effect, 100 is complete control
Method in brief: as §1

[16] = test system: barnyardgrass (Echinochloa crus-galli); test: Test B flooded paddy test, barnyardgrass; conditions: Flood, 250 g ai/ha, applied to paddy water, 2-leaf stage, visual evaluation after 13 to 15 d
Method in brief: as §2

kochia (Kochia scoparia) [17] = test: Test A postemergence, kochia; conditions: 0 to 100 scale
Method in brief: as §1

[18] = test system: ducksalad (Heteranthera limosa); test: Test B flooded paddy test, ducksalad; conditions: Flood, 250 g ai/ha, applied to paddy water, 2-leaf stage, visual evaluation after 13 to 15 d
Method in brief: as §2

corn (Zea mays) = test: Test A postemergence, corn; conditions: 0 to 100 scale
Method in brief: as §1

[19] = 125 g ai/ha, 0 no effect, 100 complete control
[20] = 500 g ai/ha, 0 no effect, 100 complete control

Nc1nc(NC(c2cc3ccccc3s2)C2CC2)ncc1C(F)(F)F (racemic) [Compound 94]
0: Plant response rating, Blackgrass [2, 19] | Plant response rating, Blackgrass [2, 20] | Plant response rating, Wheat [11, 19] | Barnyardgrass plant response rating ([15]; 125 g ai/ha) | Plant response rating, Corn (corn (Zea mays); [19])
45: Plant response rating, Sedge, Umbrella (0 to 100 scale, 0 is no effect, 100 is complete control) [5]
90: Ragweed plant response rating ([1]; 500 g ai/ha) | Plant response rating, Pigweed [3, 19] | Ryegrass, Italian plant response rating ([6]; 500 g ai/ha) | Plant response rating, Ryegrass, Italian [7, 20] | Kochia plant response rating (kochia (Kochia scoparia) [9]; 500 g ai/ha) | Plant response rating, Foxtail, Giant [12, 20] | Plant response rating, Barnyardgrass [14, 20] | Barnyardgrass plant response rating ([15]; 500 g ai/ha) | Plant response rating, Kochia (kochia (Kochia scoparia) [17]; [20])
20: Plant response rating, Corn (corn (Zea mays); [20])
35: Plant response rating, Barnyardgrass (0 to 100 scale, 0 is no effect, 100 is complete control) [16]
70: Foxtail, Giant plant response rating ([4]; 125 g ai/ha) | Plant response rating, Ragweed [10, 20] | Plant response rating, Kochia (kochia (Kochia scoparia) [17]; [19])
60: Pigweed plant response rating ([8]; 125 g ai/ha) | Kochia plant response rating (kochia (Kochia scoparia) [9]; 125 g ai/ha) | Plant response rating, Foxtail, Giant [12, 19]
30: Plant response rating, Wheat [11, 20]
80: Plant response rating, Galium [13, 20]
10: Plant response rating, Rice (0 to 100 scale, 0 is no effect, 100 is complete control) (rice (Oryza sativa))
50: Ragweed plant response rating ([1]; 125 g ai/ha) | Ryegrass, Italian plant response rating ([6]; 125 g ai/ha) | Plant response rating, Ryegrass, Italian [7, 19] | Plant response rating, Ragweed [10, 19]
40: Plant response rating, Galium [13, 19] | Plant response rating, Barnyardgrass [14, 19] | Plant response rating, Ducksalad (0 to 100 scale, 0 is no effect, 100 is complete control) [18]
100: Plant response rating, Pigweed [3, 20] | Foxtail, Giant plant response rating ([4]; 500 g ai/ha) | Pigweed plant response rating ([8]; 500 g ai/ha)

Cc1ccc2cc([C@@H](C)Nc3ncc(C(F)(F)F)c(N)n3)oc2c1 [Compound 14]
80: Plant response rating, Galium ([13]; 125 g ai/ha) | Plant response rating, Galium ([13]; 500 g ai/ha)
90: Plant response rating, Pigweed ([3]; 125 g ai/ha) | Plant response rating, Pigweed ([3]; 500 g ai/ha) | Plant response rating, Foxtail, Giant ([4]; 125 g ai/ha) | Plant response rating, Pigweed ([8]; 125 g ai/ha) | Plant response rating, Kochia (kochia (Kochia scoparia) [9]; 500 g ai/ha) | Plant response rating, Foxtail, Giant ([12]; 500 g ai/ha) | Plant response rating, Barnyardgrass ([15]; 125 g ai/ha) | Plant response rating, Kochia (kochia (Kochia scoparia) [17]; 125 g ai/ha) | Plant response rating, Kochia (kochia (Kochia scoparia) [17]; 500 g ai/ha)
100: Plant response rating, Ragweed ([1]; 125 g ai/ha) | Plant response rating, Ragweed ([1]; 500 g ai/ha) | Plant response rating, Foxtail, Giant ([4]; 500 g ai/ha) | Plant response rating, Pigweed ([8]; 500 g ai/ha) | Plant response rating, Barnyardgrass ([15]; 500 g ai/ha)
10: Plant response rating, Foxtail, Giant ([12]; 125 g ai/ha) | Plant response rating, Barnyardgrass ([14]; 125 g ai/ha) | Plant response rating, Corn (corn (Zea mays); 125 g ai/ha) | Plant response rating, Corn (corn (Zea mays); 500 g ai/ha)
40: Plant response rating, Barnyardgrass ([14]; 500 g ai/ha)
70: Plant response rating, Ragweed ([10]; 500 g ai/ha)
0: Plant response rating, Sedge, Umbrella (0 to 100 scale, 0 is no effect, 100 is complete control) [5] | Plant response rating, Ryegrass, Italian ([6]; 125 g ai/ha) | Plant response rating, Ryegrass, Italian ([7]; 125 g ai/ha) | Plant response rating, Ryegrass, Italian ([7]; 500 g ai/ha) | Plant response rating, Ragweed ([10]; 125 g ai/ha) | Plant response rating, Wheat ([11]; 125 g ai/ha) | Plant response rating, Wheat ([11]; 500 g ai/ha) | Plant response rating, Rice (0 to 100 scale, 0 is no effect, 100 is complete control) (rice (Oryza sativa)) | Plant response rating, Barnyardgrass (0 to 100 scale, 0 is no effect, 100 is complete control) [16] | Plant response rating, Ducksalad (0 to 100 scale, 0 is no effect, 100 is complete control) [18]
30: Plant response rating, Blackgrass ([2]; 125 g ai/ha) | Plant response rating, Blackgrass ([2]; 500 g ai/ha)
60: Plant response rating, Ryegrass, Italian ([6]; 500 g ai/ha) | Plant response rating, Kochia (kochia (Kochia scoparia) [9]; 125 g ai/ha)

Nc1nc(NC(c2coc3ccccc23)C2CC2)ncc1C(F)(F)F (racemic) [Compound 95]
90: Foxtail, Giant plant response rating ([4]; 125 g ai/ha) | Pigweed plant response rating ([8]; 125 g ai/ha) | Kochia plant response rating (kochia (Kochia scoparia) [9]; 500 g ai/ha) | Plant response rating, Foxtail, Giant [12, 20] | Plant response rating, Kochia (kochia (Kochia scoparia) [17]; [20])
80: Kochia plant response rating (kochia (Kochia scoparia) [9]; 125 g ai/ha) | Plant response rating, Ragweed [10, 20] | Plant response rating, Galium [13, 19] | Plant response rating, Galium [13, 20] | Barnyardgrass plant response rating ([15]; 125 g ai/ha) | Plant response rating, Kochia (kochia (Kochia scoparia) [17]; [19])
50: Ragweed plant response rating ([1]; 125 g ai/ha) | Plant response rating, Ryegrass, Italian [7, 19] | Plant response rating, Foxtail, Giant [12, 19]
0: Plant response rating, Blackgrass [2, 19] | Plant response rating, Wheat [11, 19] | Plant response rating, Rice (0 to 100 scale, 0 is no effect, 100 is complete control) (rice (Oryza sativa)) | Plant response rating, Barnyardgrass [14, 19]
55: Plant response rating, Ducksalad (0 to 100 scale, 0 is no effect, 100 is complete control) [18]
30: Plant response rating, Wheat [11, 20] | Plant response rating, Corn (corn (Zea mays); [20])
100: Ragweed plant response rating ([1]; 500 g ai/ha) | Plant response rating, Pigweed [3, 19] | Plant response rating, Pigweed [3, 20] | Foxtail, Giant plant response rating ([4]; 500 g ai/ha) | Plant response rating, Ryegrass, Italian [7, 20] | Pigweed plant response rating ([8]; 500 g ai/ha) | Barnyardgrass plant response rating ([15]; 500 g ai/ha)
70: Plant response rating, Blackgrass [2, 20] | Plant response rating, Sedge, Umbrella (0 to 100 scale, 0 is no effect, 100 is complete control) [5] | Plant response rating, Barnyardgrass [14, 20]
10: Plant response rating, Corn (corn (Zea mays); [19])
60: Ryegrass, Italian plant response rating ([6]; 500 g ai/ha) | Plant response rating, Ragweed [10, 19]
40: Ryegrass, Italian plant response rating ([6]; 125 g ai/ha)
35: Plant response rating, Barnyardgrass (0 to 100 scale, 0 is no effect, 100 is complete control) [16]
